Reference: US20120329879A1, “BETA-ADRENERGIC RECEPTOR AGONISTS AND USES THEREOF” (THE UNIVERSITY OF TENNESSEE RESEARCH FOUNDATION, priority 2010, published 2012)
Entries after “also recorded” stand apart in the source; their conditions may differ.

Tests used:
[1] = system: PKA; experiment: PKA ELISA of retinal lysates after Compound 2 eye drops in diabetic rats; assay type: in vivo, rat; details: topical 1 mM once daily for 4 days, compared with other doses (1 mM to 20 mM), hydrochloride
Procedure: To determine whether topical application of Compound 2 could reach the retina and elicit response, dose and time course studies were performed. For those studies, animals were made diabetic for 2 months using STZ. For 4 days, rats received a variety of doses of either Compound 2 (1 mM to 20 mM) or PBS once or twice each day. After the 4 days of eye drop treatment to both eyes, the diabetic and control animals were euthanized. Since beta-adrenergic receptor stimulation should increase cyclic adenosine monophosphase production and activate protein kinase A, retinal lysates were processed for a PKA ELISA (MesaCup PKA ELISA, Upstate, Temecula, Calif.). […] At 2 or 8 months, retinas were assessed for diabetes-induced degeneration of retinal cell numbers and retinal thickness (2 months) and for degenerate capillaries (8 months). TNF activity, cleaved caspase 3 and phosphorylation of insulin receptor beta and Akt were assessed at both time points. […]

[2] = system: electrical activity of the retina of diabetic rats; experiment: Electroretinogram (ERG) analyses in diabetic rats; assay type: in vivo, rat
Procedure: Each month of the experiment, electroretinogram (ERG) analyses were performed on rats from the three groups. Electroretinogram analyses were done to evaluate changes in electrical activity of the retina and as a measure of drug effectiveness. For the electroretinogram analyses, rats were dark adapted overnight. The following morning, the rats were anesthetized using an intraperitoneal injection of a ketamine (0.6 ml/kg body weight) and xylazine (0.375 ml/kg body weight) cocktail. The pupil of each eye was fully dilated using a 1% tropicamide solution (Alcon). To protect the eye and assist in maintaining a good electrical connection, a drop of methylcellulose solution was added to each eye (Celluvisc; Allergan, Irvine, Calif.). Body temperature was maintained at 37° C. with a water-based heating pad. The electroretinogram responses were recorded from both eyes simultaneously using platinum wire corneal electrodes, a forehead reference electrode, and ground electrode in the tail. The electroretinogram stimuli were delivered via the Diagnosys LLC system. All animals tested recovered from anesthesia after the electroretinogram recording sessions. No animals with gross cataract were used for electroretinogram analyses.
Electroretinogram responses were recorded in response to brief (4 ms) white LED and then from the Xenon arc lamp delivered at 2.1-second intervals for dim stimuli and 35 second frames for brighter stimuli. The range of stimulus intensities extended from −4.0 to 1.0 log cd*s/m2 for analysis of the b-wave amplitudes. Electroretinogram waveforms were recorded with a bandwidth of 0.3-500 Hz and sampled at 2 kHz by a digital acquisition system (Diagnosys) and were analyzed using MatLab (The MathWorks, Natick, Mass.). […]
For assessment of the oscillatory potentials, stimuli were administered at 3 log (cd*s/m2). Data analysis for the oscillatory potentials was obtained using MatLab software with a digital band-pass filter set for 60-300 Hz and the peak wavelets of the 4 wavelets were measured from trough to peak. […]

[3] = system: TNFalpha; experiment: TNFalpha ELISA of retina of diabetic rats; assay type: in vivo, rat
Excerpt: The other eye from each animal was used for protein analyses for inflammatory markers and insulin receptor signaling. Western blotting was done as described (9). Antibodies used were total insulin receptor beta (1:500, Cellular Signaling, Danvers, Mass.), phosphorylated insulin receptor beta (Tyr 1150/1151, 1:500, Cellular Signaling, Danvers, Mass.), total Akt (1:500, Cellular Signaling, Danvers, Mass.), and phosphorylated Akt (Ser 473, 1:500, Cellular Signaling, Danvers, Mass.). For analyses of the data, mean densitometry values were obtained using the Kodak 2.0 software. The ratio of phosphorylated protein was compared to levels of total protein.
To determine the TNF concentration (Pierce, Rockford Ill.) and levels of cleaved caspase 3 (Cellular Signaling, Danvers, Mass.), ELISA analyses were done according to manufacturers instructions, except that equal protein was loaded into the cleaved caspase 3 ELISA so the optical density numbers can be used.

[4] = Vitreous humor levels of Compound 2 after topical administration to rats; assay type: in vivo; details: rat, 10 mg/kg
Procedure: For data analyses B/PK parameters were derived from the obtained plasma, vitreous humor, urine and feces concentration data by standard non-compartmental analysis. Terminal half-life was determined as the ratio of ln 2 divided by λz, the negative of the slope of the linear regression of the natural log concentration vs. time profile during the terminal phase. Systemic and ocular exposure was determined as plasma or ocular area under the concentration-time curve (AUC) using the trapezoidal rule. Compound 2 concentration determination and metabolite profiling is conducted using a validated LC/MS/MS assay based on the methodology described (14-15). The LC-MS/MS system comprises a Shimadzu HPLC system (Kyoto, Japan), API-4000 Q Trap tandem mass spectrometer (Foster City, Calif., USA) equipped with a turbo ion-spray and a HTC-PAL autosampler (Leap Technologies, Carrboro, N.C., USA).

## COc1cc(CCNC[C@H](O)c2ccc(O)c(O)c2)cc(OC)c1OC.Cl (single isomer, unassigned) [Compound 2, 4-[1-hydroxy-2-(1-ethylamino-3-,4-,5-trimethoxyphenyl)ethyl]benzene-1,2-diol hydrochloride]
[1]
  PKA activity in the retina: showed the highest increase in PKA activity; also recorded: significantly increased PKA activity in the retina
[2]; 6 month diabetic rats receiving Compound 2 therapy for 2 months
  retinal function (ERG), delayed treatment: had improved retinal function
[2]; daily topical 1 mM from one week after STZ, ERG after 6 weeks
  B-wave amplitude: inhibited the loss of B-wave amplitude
[2]; diabetic rats, topical 1 mM daily from onset, over 8 months, hydrochloride
  ERG amplitudes (a-wave, b-wave, oscillatory potentials): inhibited the loss of amplitude of B-wave and oscillatory potentials; also recorded: can inhibit the loss of all three components of the ERG over the entire 8-month period
[3]; 1 mM eye drops, 8 months
  TNFalpha levels in retina, 8 months: levels similar to Ctrl rats
[3]; eye drop therapy
  TNFα concentration throughout the treatment regimen: effective in reducing TNFα concentration throughout the treatment regimen
[4]
  concentration in the vitreous humor within 1 hour: approximately 8 ug/ml
  time by which all detectable levels in the vitreous humor are gone: ≤ 2 h
  time of peak concentration in the vitreous humor: < 1 h
